Experimental data published in US6903086B2, “Alkoxycarbonylamino benzoic acid or alkoxycarbonylamino tetrazolyl phenyl derivatives as IP antagonists” (SYNTEX (U.S.A.) LLC, priority 2001, dated 2005).

melting point [°C]	SMILES
175.5 to 177.8	Cc1ccc(NC(=O)OCCOc2ccc(-c3ccccc3)cc2)c(C(=O)O)c1 [compound 802, 2-[2-(biphenyl-4-yloxy)-ethoxycarbonylamino]-5-methyl-benzoic acid]
213.2 to 215.1	Cc1ccc(NC(=O)OCc2cc3cc(-c4ccsc4)ccc3o2)c(C(=O)O)c1 [compound 31, 5-methyl-2-(5-thiophen-3-yl-benzofuran-2-ylmethoxycarbonylamino)-benzoic acid]
166 to 190	O=C(Nc1ccc(Br)cc1-c1nnn[nH]1)OCc1cc2cc(-c3ccccc3)ccc2o1 [compound 507, [4-bromo-2-(1H-tetrazol-5-yl)-phenyl]-carbamic acid 5-phenyl-benzofuran-2-ylmethyl ester]
179 to 182.2	O=C(Nc1cccc(Cl)c1C(=O)O)OCc1cc2cc(-c3ccnnc3)ccc2o1 [compound 40, 2-chloro-6-(5-pyridazin-4-yl-benzofuran-2-ylmethoxycarbonylamino)-benzoic acid]
213 to 216.5	O=C(Nc1ccccc1-c1nnn[nH]1)OCc1cc2cc(-c3ccccc3)ccc2o1 [compound 508, [2-(1H-tetrazol-5-yl)-phenyl]-carbamic acid 5-phenyl-benzofuran-2-ylmethyl ester]
134.8 to 144.1	O=C(Nc1cccc(Cl)c1C(=O)O)OCc1cc2cc(-c3ccccn3)ccc2o1 [compound 38, 2-chloro-6-(5-pyridin-2-yl-benzofuran-2-ylmethoxycarbonylamino)-benzoic acid]
216.7 to 217.3	O=C(Nc1cccc(Cl)c1C(=O)O)OCc1cc2cc(-c3ccc(F)cc3)ccc2o1 [compound 25, 2-chloro-6-[5-(4-fluoro-phenyl)-benzofuran-2-ylmethoxycarbonylamino]-benzoic acid]
170.6 to 172	O=C(Nc1cccc(Br)c1C(=O)O)OCc1cc2cc(-c3ccc(F)cc3)ccc2o1 [compound 42, 2-bromo-6-[5-(4-fluoro-phenyl)-benzofuran-2-ylmethoxycarbonylamino]-benzoic acid]

Further lines, the compound ahead of its results:

SMILES	melting point [°C]
N#Cc1ccc(NC(=O)OCc2cc3cc(-c4ccccc4)ccc3o2)c(C(=O)O)c1 [compound 21, 5-cyano-2-(5-phenyl-benzofuran-2-ylmethoxycarbonylamino)-benzoic acid]	213.9 to 214.5
O=C(Nc1ccc(-c2ccccc2)cc1C(=O)O)OCc1cc2cc(-c3ccc(F)cc3)ccc2o1 [compound 15, 4-[5-(4-fluoro-phenyl)-benzofuran-2-ylmethoxycarbonylamino]-biphenyl-3-carboxylic acid]	231.3 to 231.6
O=C(Nc1ccc(Cl)cc1C(=O)O)OCc1cc2cc(-c3ccc(F)cc3)ccc2o1 [compound 24, 5-chloro-2-[5-(4-fluoro-phenyl)-benzofuran-2-ylmethoxycarbonylamino]-benzoic acid]	216.7 to 217.3
O=C(Nc1ccc(-c2ccc(F)cc2)cc1C(=O)O)OCc1cc2cc(-c3ccc(F)cc3)ccc2o1 [compound 14, 4′-fluoro-4-[5-(4-fluoro-phenyl)-benzofuran-2-ylmethoxycarbonylamino]-biphenyl-3-carboxylic acid]	235.1 to 235.7
O=C(Nc1cc(-c2ccccc2)ccc1C(=O)O)OCc1cc2cc(-c3ccccc3)ccc2o1 [compound 11, 3-(5-phenyl-benzofuran-2-ylmethoxycarbonylamino)-biphenyl-4-carboxylic acid]	229.5 to 230
